Experimental findings from patent US20120252730A1, “PLATELET AGGREGATION INHIBITORS” (UNIVERSITY OF CHICAGO, priority 2009, published 2012) are described below.

The chains are these.
B1: GHHLGGADQAGKVC (SEQ ID NO: 71), scrambled peptide immobilized on a self-assembled monolayer (peptide)
peptide: GHHLGGADQAGKVC-NH2
modifications: not fully specified (residue 14); also: C-terminal Cys thiol linked to maleimide of monolayer
notes: Control
B2: KQAGDC (SEQ ID NO: 19), immobilized on a self-assembled monolayer (peptide)
peptide: KQAGDC-NH2
modifications: not fully specified (residue 6); also: C-terminal Cys thiol linked to maleimide of monolayer
notes: also called 0.5% KQAGDC SAM
B3: KQAGC (SEQ ID NO: 20), immobilized on a self-assembled monolayer (peptide)
peptide: KQAGC-NH2
modifications: not fully specified (residue 5); also: C-terminal Cys thiol linked to maleimide of monolayer
notes: also called 0.5% KQAGC SAM
B4: QAGDVC (SEQ ID NO: 16), immobilized on a self-assembled monolayer (peptide)
peptide: QAGDVC-NH2
modifications: not fully specified (residue 6); also: C-terminal Cys thiol linked to maleimide of monolayer
notes: also called 0.5% QAGDVC SAM

Ends that are not written are not given here. maleimide monolayer = not defined here

One test has as its system αIIbβ3 CHO K1 cells. The test can be described thus: Cell adhesion assay: αIIbβ3 CHO K1 cells on SAMs presenting immobilized peptides. In kind it is cell-based, human. To be noted: 0.5% peptide SAM; in presence of 300 μM cRGDFG. As for the experimental part:
Monolayers were prepared as described (Houseman, et al., 2003). Glass coverslips were sonicated for 30 minutes in deionized ultrafiltered (DIUF) water and then 30 minutes in ethanol and then dried under a stream of nitrogen. Titanium (4 nm) and then gold (29 nm) were evaporated onto the coverslips using an electron beam evaporator (Boc Edwards) at a rate of 0.05-0.10 nm/s and at a pressure of 1 μTorr. The gold-coated coverslips were immersed in an ethanolic solution of maleimide-terminated disulfide (1%) and tri(ethylene glycol)-terminated disulfide (99%) overnight at room temperature. The total disulfide concentration was 1 mM. The substrates were washed with DIUF water, ethanol and then dried under a stream of nitrogen.
The pcDNA3.1 vectors that express human αIIb or β3, respectively, have been described previously (see e.g., Litvinov et al. (2006) Biochemistry, 45: 4957-4964). CHO K1, BHK 21 and HT1080 cells were purchased from ATCC. All CHO cells were cultured at 37° C. and 5% CO2 using F12K medium supplemented with 10% FBS and pen/strep. […] CHO K1 cells were transfected with αIIb and β3 cDNA with FuGENE following the supplier's protocol. Transfected cells were selected with 1 mg/mL zeocin and 1 mg/mL geneticin.
Cysteine-terminated peptides were immobilized onto maleimide-presenting SAMs by adding 40 μL of 1 mM peptide solution to the biochip and incubating at 37° C. for 1 hour. Substrates were rinsed with DIUF water and ethanol and dried under a stream of nitrogen. αIIbβ3 CHO K1 cells were detached from culture plates with 1 mM EGTA/2 mM EDTA in PBS (phosphate-buffered saline), rinsed with serum-free F-12K medium, centrifuged and resuspended in serum-free F-12K medium supplemented with cRGDFG (SEQ ID NO: 12) (300 μM) and 1× penicillin/streptomycin. After 15-minute of incubation, cells (200,000/mL) were added to substrates in 24-well culture plates. After 2 hour incubation at 37° C. and 5% CO2, media was exchanged for F-12K medium supplemented with 10% FBS, 1× penicillin/streptomycin and cRGDFG (SEQ ID NO: 12) (300 μM). After 2 hours, the substrates were washed gently with warm PBS, and adherent cells were immediately fixed with 4% formaldehyde for 30 minutes, visualized with a 20× objective of a Zeiss Axiovert 200 inverted microscope, and photographed. For cell adhesion assays mediated by Ac-GXGDSC (SEQ ID NO: 26), αIIbβ3 CHO K1 cells were incubated on a 5×4 circle (1 mm diameter) array for 1 hour with serum-free F-12K medium supplemented with cRGDFG (SEQ ID NO: 12) (300 μM) and 1× penicillin/streptomycin, followed by media exchange to F-12K medium supplemented with 10% FBS, 1× penicillin/streptomycin and cRGDFG (SEQ ID NO: 12) (300 μM. The substrates were washed with warm PBS, and adherent cells were immediately fixed and permeabilized with 4% formaldehyde and 0.5% Triton-X for 30 minutes. Fixed cells were stained with DAPI, visualized and photographed with a 20× objective as described. The number of adherent cells per field of view was counted using Image J software. Cells were counted in at least three fields for each circle, and each experiment was repeated 3 times. The degree of adhesion is reported as a percentage of cells that adhere relative to control experiments with the peptide Ac-GRGDSC (SEQ ID NO: 28).
Monolayers were prepared that presented a mixture of maleimide groups and tri(ethylene glycol) groups with the former present at a density of 0.5% (relative to total alkanethiolate). The monolayers were treated with cysteine-terminated peptides to immobilize the ligands (FIG. 1A). In each case mass spectrometry was used to verify immobilization of the peptides in high yield (Su et al., 2002).
The adhesion and spreading of αIIbβ3 CHO K1 cells to monolayers presenting GRGDSC (SEQ ID NO: 11), HHLGGAKQAGDVC (SEQ ID NO: 21) and a mixture of both peptides was compared. […]
Regarding “KQAGDVC (completely synthesized peptide)”, the “adhesion of αIIbβ3 CHO K1 cells to monolayer presenting the peptide” value was “adhered and spread”. Regarding QAGDVC (completely synthesized peptide), the “adhesion of αIIbβ3 CHO K1 cells to monolayer presenting the peptide” value is listed as “adhered”.

In the next test the target is T1, human αIIbβ3 integrin on transfected CHO K1 cells (human, UniProt P08514 32-1039; P05106 27-788).
T1 construct: whole, on cells; CHO K1 cells transfected with human αIIb and β3 cDNA; about 30% of the cells expressed the receptor; also called platelet receptor; platelet integrin
Description: adhesion of αIIbβ3 CHO K1 cells to the peptide monolayer, 300 µM cRGDFG present.
Details: not given
As for the experimental part: For cell adhesion assays mediated by Ac-GXGDSC (SEQ ID NO: 26), αIIbβ3 CHO K1 cells were incubated on a 5×4 circle (1 mm diameter) array for 1 hour with serum-free F-12K medium supplemented with cRGDFG (SEQ ID NO: 12) (300 μM) and 1× penicillin/streptomycin, followed by media exchange to F-12K medium supplemented with 10% FBS, 1× penicillin/streptomycin and cRGDFG (SEQ ID NO: 12) (300 μM. The substrates were washed with warm PBS, and adherent cells were immediately fixed and permeabilized with 4% formaldehyde and 0.5% Triton-X for 30 minutes. Fixed cells were stained with DAPI, visualized and photographed with a 20× objective as described. The number of adherent cells per field of view was counted using Image J software. Cells were counted in at least three fields for each circle, and each experiment was repeated 3 times. The degree of adhesion is reported as a percentage of cells that adhere relative to control experiments with the peptide Ac-GRGDSC (SEQ ID NO: 28).
CHO K1 cells were used that were transfected with the αIIbβ3 receptor, as described previously (Salsmann et al., 2005). Cells were transfected with pcDNA3.1 vectors that coded for αIIb and β3 using FuGENE6 and analyzed by FACS after labeling with the PAC-1 (anti-αIIbβ3) and H-96 (anti-β3) antibodies. Approximately 30% of the cells expressed the receptor (FIG. 2A). Because the CHO K1 cells also express αv and α5 integrins on their surfaces, adhesion experiments were performed in the presence of the cyclic peptide cRGDFG (SEQ ID NO: 12), where F is a D amino acid. […] Treatment of transfected cells with both the cyclic peptide inhibitor and the PAC-1 antibody, however, prevented cell adhesion to the monolayer (FIG. 2F).
In the case of KQAGDVC(maleimide monolayer)-NH2 (reading uncertain, also called 0.5% KQAGDVC SAM) [KQAGDVC (SEQ ID NO: 14), immobilized on a self-assembled monolayer], the binding result is reported as “binds”. As to B1, the binding result is reported as “no binding”. The same measure, in the same setting: the entry for B2 is “binds”; for B3 it is “no binding”; for B4 it is “binds”. Turning to AGDVC(maleimide monolayer)-NH2 (not fully specified; reading uncertain, also called 0.5% AGDVC SAM) [AGDVC (SEQ ID NO: 17), immobilized on a self-assembled monolayer], the binding result was “binds”. For the molecule GGAKQAC(maleimide monolayer)-NH2 (reading uncertain, also called 0.5% GGAKQAC SAM) [GGAKQAC (SEQ ID NO: 15), immobilized on a self-assembled monolayer], the binding result is listed as “no binding”. Turning to HHLGGAC(maleimide monolayer)-NH2 (reading uncertain, also called 0.5% HHLGGAC SAM) [HHLGGAC (SEQ ID NO: 13), immobilized on a self-assembled monolayer], the binding result is listed as “no binding”. Same read-out and setting: next, GDVC(maleimide monolayer)-NH2 (reading uncertain, also called 0.5% GDVC SAM) [GDVC (SEQ ID NO: 18), immobilized on a self-assembled monolayer]: “no binding”; GGRDGSC(maleimide monolayer)-NH2 (reading uncertain, Control; also called 0.5% GGRDGSC) [GGRDGSC (SEQ ID NO: 70), scrambled peptide immobilized on a self-assembled monolayer]: “no binding”.

A further test has as its system αIIbβ3 CHO K1 cells. Description: Cell adhesion inhibition assay with soluble peptides. In kind it is cell-based, human. The following applies: monolayer presenting GRGDS. As for the experimental part: Suspensions of αIIbβ3 CHO K1 cells (100,000/mL) were incubated with cRGDFG (SEQ ID NO: 12) (300 μM) in serum-free F-12K medium with 1 mg/mL BSA (bovine serum albumin) and 1× penicillin/streptomycin for 15 minutes at 37° C. and 5% CO2. These suspensions were then supplemented with soluble peptides at concentrations ranging from 1 pM to 100 μM and further incubated for 15 minutes at 37° C. and 5% CO2. Cells were then added to monolayers and incubated at 37° C. and 5% CO2 for 2 hours, then media was exchanged for F-12K medium supplemented with 10% FBS and 1× penicillin/streptomycin. The substrates were further incubated for 2 hours. The substrates were washed gently with warm PBS, and adherent cells were immediately fixed and permeabilized with 4% formaldehyde and 0.5% Triton-X for 30 minutes. Fixed cells were stained with DAPI, visualized and photographed with a 20× as described previously. The number of adherent cells per field of view was counted using Image J. Cells were counted in at least five fields for each substrate, and each experiment was repeated 3 times. The degree of inhibition is reported as a percentage of cells that adhere relative to control experiments in the absence of soluble peptide.
To verify that the two peptides interact with the same site on αIIbβ3, it was determined whether the peptides GRGDS (SEQ ID NO: 4), HHLGGAKQAGDV (SEQ ID NO: 1) and AGDV (SEQ ID NO: 22), in soluble form, could block the attachment of cells to the monolayers presenting these ligands. In these experiments identical suspensions of cells (100,000/mL) were first incubated in serum-free F-12K medium supplemented with cRGDFG (SEQ ID NO: 12) (300 μM) and with the soluble peptides in concentrations ranging from 1 pM to 100 μM and then applied the mixtures to monolayers presenting either the GRGDSC (SEQ ID NO: 11), HHLGGAKQAGDVC (SEQ ID NO: 21), or AGDVC (SEQ ID NO: 17) peptide (SEQ ID NO: 17) (FIG. 5). Cells were allowed to attach for 2 hours, after which media was exchanged to 10% FBS F-12K medium (supplemented with cRGDFG (SEQ ID NO: 12)) and cultured for an additional 2 hours. The slides were then rinsed and nuclei were stained with DAPI to facilitate counting of the adherent cells. […] This experiment again verifies that the cell attachment is mediated by the immobilized peptide alone and not non-specific interactions between other cell-surface molecules and the monolayer.
Turning to AGDV (completely synthesized peptide), the “block of cell attachment by soluble peptide” value (from here on “block of cell attachment”) is reported as “blocked cell attachment”. Take “HHLGGAKQAGDV (not fully specified (C-terminus))”: the “block of cell attachment” value is listed as “blocked cell attachment”.

The test is the same for the next values; noted with them: monolayers presenting GRGDSC, HHLGGAKQAGDVC or AGDVC; soluble peptide 1 pM to 100 μM; 300 μM cRGDFG.
AGDV (completely synthesized peptide): the “block of cell attachment” value was “could block cell attachment to monolayers presenting any of the three peptides”. Take GADGV (scrambled peptide): the “block of cell attachment” value was “had no effect on cell adhesion”. Take GGRDGS (scrambled peptide): the “block of cell attachment” value is “had no effect on cell adhesion”. As to GHHLGGADQAGKV (scrambled peptide), the “block of cell attachment” value is given as “had no effect on cell adhesion”. Consider GRGDS (synthesized peptide inhibitor), for which the “block of cell attachment” value is reported as “could block cell attachment to monolayers presenting any of the three peptides”. “HHLGGAKQAGDV (not fully specified (C-terminus))”: the “block of cell attachment” value is “could block cell attachment to monolayers presenting any of the three peptides”.
